From patent US20160067269A1, “Miltefosin Or Perifosin For Use In The Treatment of IBD” (ACADEMISCH MEDISCH CENTRUM, priority 2013, published 2016)

Key:
[1] = 50 mg/kg per treatment; reported in literature; cited from earlier work
[2] = test system: SCID mice (C.B-17/lcrHsd-Prkcd); assay: experimental colitis transfer model (CD45RBHigh cells injected into SCID mice); assay type: in vivo, mouse; details: 50 mg/kg oral gavage twice a week
Description: To study the application of miltefosine as an anti-inflammatory drug, miltefosine was tested in the experimental colitis transfer model. In this model SCID mice, lacking T and B lymphocytes, are injected with only effector T lymphocytes (CD4^+CD45RB^High) omitting regulatory T lymphocytes (CD4^+CD45RB^Low). The absence of the letter causes, over a period of two months, the development of chronic inflammation of the colon.
Mouse CD4 positive lymphocytes were isolated from the spleen of normal mice (Balb/c OlaHsd). The spleen was removed, forced through a cell strainer to obtain a single cell suspension. Erythrocytes were lysed by adding water, quickly followed by PBS. The remaining cells were enriched in CD4 positive cells by negative depletion using magnetic beads specific for B cell (anti-B220), macrophages (anti-Mac-1) and cytotoxic T lymphocytes (anti-CD8). The remaining cell were washed and labeled for CD4 (CD4-PerCP-Cy5) and CD45RB (CD45RB-FITC). Using a FACS sorter the cell were separated in CD4 cells expressing low levels of CD45RB (CD45RB^Low) and high levels of CD45RB (CD45RB^High).
To induce colitis, SCID mice (C.B-17/lcrHsd-Prkcd) were injected with 5·10^5 CD45RB^High cells.
The mice were divided in three groups, each group containing 10 mice. […] Group two and three both received only CD45RB^High cells and developed colitis. Only group three received miltefosine (50 mg/kg) via oral gavage. Treatment started two weeks after the start of the experiment and was given twice a week until the end of the experiment. The mice were weighted three times a week during the entire duration of the experiment.
Part of the colon of each mouse was embedded in paraffin, cut and stained with hematoxylin and eosin (HE). The pathology score takes in account epithelial cell hyperplasia, leukocyte infiltrations, loss of goblet cells, ulceration and cryptabscesses.

human patients = details: high dosages; cited from earlier work

## CCCCCCCCCCCCCCCCOP(=O)([O-])OCC[N+](C)(C)C [miltefosine, hexadecyl phosphocholine]
[1]
  effect on bodyweight: can affect bodyweight negatively
[2]; after day 42
  weight loss in two days time: ten
[2]; between the groups
  average weight at the end of the experiment: does not differ significantly
[2]; till day 42
  average weight of the group versus negative control group: corresponded with the negative control group
Human patients
  side effects in human patients: nausea and vomiting
